Data as given in ChEMBL document CHEMBL4304838, “Building Bridges in a Series of Estrogen Receptor Degraders: An Application of Metathesis in Medicinal Chemistry” (ACS Med Chem Lett, 2019).
Converted amounts (≈) assume the structure as drawn.

Assays:
[1] = Stability of the compound assessed as parent compound remaining in buffer at pH 7.4 measured after 8 days by 1H-NMR analysis; type: physicochemical; details: read-out: Stability
in vitro [2] = details: human, hepatocytes
Estrogen receptor [3] = biological target: T1, Estrogen receptor (Homo sapiens, UniProt P03372); test: biochemical
T1 sequence (P03372 whole entry): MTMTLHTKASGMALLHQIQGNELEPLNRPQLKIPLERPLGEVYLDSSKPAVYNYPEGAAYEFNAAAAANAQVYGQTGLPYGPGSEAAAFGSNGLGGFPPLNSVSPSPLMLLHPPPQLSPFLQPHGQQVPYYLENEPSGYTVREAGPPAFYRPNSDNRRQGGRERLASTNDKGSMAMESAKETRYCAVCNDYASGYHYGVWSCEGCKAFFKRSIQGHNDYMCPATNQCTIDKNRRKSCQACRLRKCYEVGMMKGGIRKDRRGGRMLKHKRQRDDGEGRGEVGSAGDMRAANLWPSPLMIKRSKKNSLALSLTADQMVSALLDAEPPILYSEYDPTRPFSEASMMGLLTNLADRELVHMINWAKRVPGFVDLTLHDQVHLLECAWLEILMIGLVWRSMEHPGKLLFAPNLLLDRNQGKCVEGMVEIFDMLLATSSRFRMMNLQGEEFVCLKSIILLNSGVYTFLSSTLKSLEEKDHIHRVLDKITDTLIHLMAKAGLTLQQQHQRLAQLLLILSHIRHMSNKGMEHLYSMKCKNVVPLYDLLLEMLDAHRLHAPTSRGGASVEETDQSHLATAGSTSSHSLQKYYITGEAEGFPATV
Description: Displacement of fluorescent labelled fluormone ES2 from human recombinant GST tagged ER alpha LBD ( 282 to 595 residues) expressed in baculovirus infected insect cells measured after 20 mins by TR-FRET Lanthascreen assay

in vitro [4] = details: rat, hepatocytes
Estrogen receptor [5] = biological target: T1, Estrogen receptor
Description: Induction of ERalpha degradation in human MCF7 cells assessed as downregulation of ER alpha receptor expression measured after 18 to 22 hrs by immunofluorescence assay

physchem = details: buffer, pH 7.4
[6] = human, plasma
Description: Fraction unbound in human plasma by equilibrium dialysis method

[7] = AUC in rat at 1 mg/kg, po; type: ADME, organism-based; details: in vivo
[8] = Acid dissociation constant, pKa of the compound in potassium chloride at 20 degC by UV absorption analysis; type: physicochemical
Cytochrome P450 1A2 = biological target: T2, Cytochrome P450 1A2 (Homo sapiens, UniProt P05177); test: Inhibition of CYP1A2 (unknown origin); type: ADME
T2 sequence (P05177 whole entry): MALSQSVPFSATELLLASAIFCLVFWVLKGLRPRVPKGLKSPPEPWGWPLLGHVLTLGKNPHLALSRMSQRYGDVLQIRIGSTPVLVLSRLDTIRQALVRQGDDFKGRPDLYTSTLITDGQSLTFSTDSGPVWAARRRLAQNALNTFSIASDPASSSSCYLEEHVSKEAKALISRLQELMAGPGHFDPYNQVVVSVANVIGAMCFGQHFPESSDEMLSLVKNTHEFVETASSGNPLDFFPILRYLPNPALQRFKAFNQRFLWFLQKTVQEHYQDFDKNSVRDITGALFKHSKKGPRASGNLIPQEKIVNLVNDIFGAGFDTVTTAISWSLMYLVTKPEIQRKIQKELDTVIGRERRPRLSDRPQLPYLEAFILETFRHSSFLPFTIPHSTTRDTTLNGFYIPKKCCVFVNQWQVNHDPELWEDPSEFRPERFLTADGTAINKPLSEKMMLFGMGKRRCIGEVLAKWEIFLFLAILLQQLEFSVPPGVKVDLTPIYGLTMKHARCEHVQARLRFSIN

[9] = Stability of the compound assessed as parent compound remaining in buffer at pH 7.4 measured after 3 days by 1H-NMR analysis; type: physicochemical; details: read-out: Stability
[10] = Half-life in rat at 1 mg/kg, po; type: ADME, organism-based; details: in vivo
[11] = Oral bioavailability in rat at 1 mg/kg; type: ADME, organism-based; details: in vivo
[12] = Base dissociation constant, pKa of the compound in potassium chloride at 20 degC by UV absorption analysis; type: physicochemical
[13] = Plasma clearance in rat at 0.5 mg/kg, iv or 1 mg/kg, po; type: ADME, organism-based
Cytochrome P450 3A4 = Cytochrome P450 3A4 (Homo sapiens, UniProt P08684); test: Inhibition of CYP3A4 (unknown origin); type: ADME
Cytochrome P450 3A4, sequence (P08684 whole entry): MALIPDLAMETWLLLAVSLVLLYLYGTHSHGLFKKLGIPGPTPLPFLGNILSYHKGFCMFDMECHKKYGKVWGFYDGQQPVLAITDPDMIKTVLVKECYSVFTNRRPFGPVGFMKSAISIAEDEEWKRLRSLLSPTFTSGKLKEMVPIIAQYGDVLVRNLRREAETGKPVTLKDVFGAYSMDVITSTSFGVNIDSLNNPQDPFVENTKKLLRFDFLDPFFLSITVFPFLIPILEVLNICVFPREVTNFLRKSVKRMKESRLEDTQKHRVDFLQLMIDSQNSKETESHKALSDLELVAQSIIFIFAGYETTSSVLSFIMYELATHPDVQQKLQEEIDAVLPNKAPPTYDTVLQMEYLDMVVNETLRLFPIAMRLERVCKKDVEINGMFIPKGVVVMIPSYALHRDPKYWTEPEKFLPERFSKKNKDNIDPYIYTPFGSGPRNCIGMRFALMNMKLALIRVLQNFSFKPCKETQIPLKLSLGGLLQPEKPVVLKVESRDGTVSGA

[14] = Volume of distribution at steady state in rat at 0.5 mg/kg, iv or 1 mg/kg, po; type: ADME, organism-based; details: in vivo, read-out: Vdss
Cytochrome P450 2C9 = Cytochrome P450 2C9 (Homo sapiens, UniProt P11712); test: Inhibition of CYP2C9 (unknown origin); type: ADME
Cytochrome P450 2C9, sequence (P11712 whole entry): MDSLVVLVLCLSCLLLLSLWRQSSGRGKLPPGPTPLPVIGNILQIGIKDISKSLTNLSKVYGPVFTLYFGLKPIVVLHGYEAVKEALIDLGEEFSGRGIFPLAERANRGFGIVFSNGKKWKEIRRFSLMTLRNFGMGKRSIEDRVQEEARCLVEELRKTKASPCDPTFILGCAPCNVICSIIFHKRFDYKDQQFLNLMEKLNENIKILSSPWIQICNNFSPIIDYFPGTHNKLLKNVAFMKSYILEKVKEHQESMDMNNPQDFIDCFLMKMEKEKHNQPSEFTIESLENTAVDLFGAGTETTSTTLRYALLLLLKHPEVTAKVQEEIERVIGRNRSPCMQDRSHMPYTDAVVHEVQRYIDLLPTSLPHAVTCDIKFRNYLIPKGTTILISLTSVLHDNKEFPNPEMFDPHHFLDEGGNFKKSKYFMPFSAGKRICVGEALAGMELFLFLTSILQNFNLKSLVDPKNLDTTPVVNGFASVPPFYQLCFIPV

Cytochrome P450 2D6 = Cytochrome P450 2D6 (Homo sapiens, UniProt P10635); test: Inhibition of CYP2D6 (unknown origin); type: ADME
Cytochrome P450 2D6, sequence (P10635 whole entry): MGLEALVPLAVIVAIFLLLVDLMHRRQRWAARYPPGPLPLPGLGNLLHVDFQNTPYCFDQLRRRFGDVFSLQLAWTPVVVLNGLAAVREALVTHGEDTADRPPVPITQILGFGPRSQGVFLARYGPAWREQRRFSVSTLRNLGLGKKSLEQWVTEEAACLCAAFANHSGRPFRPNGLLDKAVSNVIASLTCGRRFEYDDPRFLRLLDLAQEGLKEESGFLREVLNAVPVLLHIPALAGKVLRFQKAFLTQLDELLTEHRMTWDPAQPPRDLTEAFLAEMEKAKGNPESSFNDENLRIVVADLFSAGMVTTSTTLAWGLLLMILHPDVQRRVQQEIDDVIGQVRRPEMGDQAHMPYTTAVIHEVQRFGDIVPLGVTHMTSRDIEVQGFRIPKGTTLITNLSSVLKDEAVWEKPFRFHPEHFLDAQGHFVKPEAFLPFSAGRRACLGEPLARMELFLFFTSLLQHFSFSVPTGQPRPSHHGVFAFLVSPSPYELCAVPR

[15] = Aqueous solubility of the compound in phosphate buffer at pH 7.4 at 25 degC after 24 hrs; type: physicochemical
Cytochrome P450 2C19 = Cytochrome P450 2C19 (Homo sapiens, UniProt P33261); test: Inhibition of CYP2C19 (unknown origin); type: ADME
Cytochrome P450 2C19, sequence (P33261 whole entry): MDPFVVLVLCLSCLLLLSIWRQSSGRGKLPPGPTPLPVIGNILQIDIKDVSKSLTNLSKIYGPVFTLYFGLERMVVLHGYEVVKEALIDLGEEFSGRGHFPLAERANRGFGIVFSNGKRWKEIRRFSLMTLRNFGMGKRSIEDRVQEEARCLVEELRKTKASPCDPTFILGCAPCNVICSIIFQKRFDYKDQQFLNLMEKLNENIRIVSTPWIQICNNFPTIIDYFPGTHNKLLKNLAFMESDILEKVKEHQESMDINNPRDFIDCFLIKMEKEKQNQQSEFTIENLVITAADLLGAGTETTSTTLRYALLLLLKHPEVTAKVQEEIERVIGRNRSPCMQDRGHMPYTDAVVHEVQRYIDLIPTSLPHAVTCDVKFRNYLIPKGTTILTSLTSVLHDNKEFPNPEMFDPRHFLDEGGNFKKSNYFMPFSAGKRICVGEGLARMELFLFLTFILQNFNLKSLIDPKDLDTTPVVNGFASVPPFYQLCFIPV

[16] = Half-life in rat at 0.5 mg/kg, iv; type: ADME, organism-based; details: in vivo
[17] = Stability of the compound assessed as parent compound remaining in buffer at pH 7.4 measured after 4 days by 1H-NMR analysis; type: physicochemical; details: read-out: Stability

remaining at 192 h [1] [%] | hepatocyte CLint (in vitro [2]) [µL/min/1e6 cells] | IC50 (Estrogen receptor [3]) [nM] | hepatocyte CLint (in vitro [4]) [µL/min/1e6 cells] | IC50 (Estrogen receptor [5]) [nM] | logD (physchem) | Fu [6] [%] | Structure (SMILES) | also measured
100 | 14 | 0.631 | 8 | 1.58 | 2.8 | 0.3 | CC(C)(F)CN1[C@@H]2C=CC[C@@]1(c1c(F)cc(/C=C/C(=O)O)cc1F)c1[nH]c3ccccc3c1C2 | –
100 | < 1 | – | – | – | > 4.4 | – | C[C@@H]1Cc2c([nH]c3ccccc23)[C@@H](c2c(F)cc(OCCN3CC(CF)C3)cc2F)N1CC(C)(C)F | –
75 | – | 1 | 18 | 0.251 | > 4.4 | 0.05 | C[C@@H]1Cc2c([nH]c3ccccc23)[C@@](C)(c2c(F)cc(OCCN3CC(CF)C3)cc2F)N1CC(C)(C)F | –
– | 31 | – | 5 | – | – | 0.26 | C[C@@H]1Cc2c([nH]c3ccccc23)[C@@H](c2c(F)cc(/C=C/C(=O)O)cc2F)N1CC(C)(C)F [AZD-9496] | remaining at 72 h [9]: 92%
– | 13 | 0.398 | 9 | 1.26 | 2.7 | 0.28 | C[C@@H]1Cc2c([nH]c3ccccc23)[C@@](C)(c2c(F)cc(/C=C/C(=O)O)cc2F)N1CC(C)(C)F | remaining at 96 h [17]: 58%
100 | 4 | 2 | 17 | 2 | 5.3 | 0.17 | CC(C)(F)CN1[C@@H]2CCC[C@@]1(c1c(F)cc(OCCN3CC(CF)C3)cc1F)c1[nH]c3ccccc3c1C2 | –

Structure (SMILES) | remaining at 192 h [1] [%] | hepatocyte CLint (in vitro [2]) [µL/min/1e6 cells] | IC50 (Estrogen receptor [3]) [nM] | hepatocyte CLint (in vitro [4]) [µL/min/1e6 cells] | IC50 (Estrogen receptor [5]) [nM] | logD (physchem) | Fu [6] [%] | also measured
CC(C)(F)CN1[C@@H]2CCC[C@@]1(c1c(F)cc(/C=C/C(=O)O)cc1F)c1[nH]c3ccccc3c1C2 | – | 8 | 0.794 | 26 | 15.8 | 2.9 | 0.45 | AUC [7]: 2.7 µM·h; pKa [8]: 3.8; IC50 (Cytochrome P450 1A2): > 30000 nM; remaining at 72 h [9]: 100%; half-life [10]: 3.1 h; bioavailability [11]: 100%; pKa [12]: 5.7; clearance [13]: 10 mL/min/kg; IC50 (Cytochrome P450 3A4): > 30000 nM; Vd [14]: 1.6 L/kg; IC50 (Cytochrome P450 2C9): > 30000 nM; IC50 (Cytochrome P450 2D6): > 30000 nM; solubility at 24 h [15]: 734 µM (≈ 344 µg/mL); IC50 (Cytochrome P450 2C19): > 30000 nM; half-life [16]: 2.8 h
